According to patent US20260200920A1, “SUBSTITUTED AMINOPYRIDINE COMPOUNDS FOR USE AS AKT1 INHIBITORS” (Atavistik Bio, Inc., priority 2023, published 2026):

Legend:
[1] = target: T1, human recombinant kinase full-length AKT1 E17K (Homo sapiens, UniProt P31749, E17K); experiment: AKT1 E17K kinase assay (TR-FRET, Lance); format: biochemical; conditions: 0.6 nM AKT1 E17K, 50 nM Ulight-CREBtide, either 50 μM ATP or 2 mM ATP, 60 min at RT
T1 construct: Purified human recombinant kinase full-length AKT1 E17K was expressed in insect cells; made in house; host or cells: insect cells
Description: AKT1 E17K kinase assay: Inhibitory effects of compounds on AKT1 E17K were undertaken in a 10-pt dose response kinase activity assay measuring phospho-peptide product formation based on TR-FRET signal as described in the following paragraph.
(§1) Purified human recombinant kinase full-length AKT1 E17K was expressed in insect cells and activated in vitro by PDPK1. Ulight™-CREBtide (PerkinElmer, catalog number TRF0107) was used as the peptide substrate. The reaction buffer consisted of 50 mM HEPES pH 7.5, 10 mM MgCl2, 0.01% Triton X-100, 0.01% BSA, 2 mM DTT, 0.6 nM AKT1 E17K, 50 nM Ulight™-CREBtide and either 50 μM ATP or 2 mM ATP. The compound solution was prepared as 10 mM DMSO stock. For the assay, a 1.3 serial dilution 10-pt dose response of test compounds, in duplicate, for each concentration were dispensed into a 384-well plate (Corning, catalog number 4513). Final DMSO concentration in the assay was 1%. The enzyme mixture (5 μL, 1.2 nM) were added and the mixture was incubated for 15 min at RT prior to the start of the kinase reaction by the addition of 5 μL substrate mixture (100 nM Ulight™-CREBtide). The reaction was stopped after 60 min of incubation at RT by the addition of 10 μL of Detection Mix (PerkinElmer, #CR97-100) consisting of Europium-anti-phospho-CREB (Ser133) (Perkin Elmer, catalog number TRF0200). Incubation with the detection mix for a further 60 min allowed binding of antibody to the phospho-Ulight™ CREBtide. The fluorescence emissions at 620 nm and 665 nm after excitation at 350 nm was measured using Envision reader. The ratio of the emissions at 665 nm and at 620 nm provided the measure for the amount of phosphorylated CREBtide product of AKT1 E17K kinase activity. To determine the IC50 values, the data was normalized (enzyme reaction without inhibitor=0% inhibition, all other assay components but no enzyme=100% inhibition) and IC50 values were calculated by a 4-parameter fit using an in-house developed protocol.
Table 9 assigns each compound a code for potency in the AKT1 E 17K kinase assay: A, B, or C. According to the code, A represents an IC50 value <500 nM; B represents an IC50 value from ≥500 nM to <2000 nM; and C represents an IC50 value ≥2000 nM.

[2] = target: T2, human recombinant kinase full-length wildtype AKT1 (Homo sapiens, UniProt P31749); experiment: AKT1 kinase assay (wildtype, TR-FRET, Lance); format: biochemical; conditions: 0.6 nM wildtype AKT1, 50 nM Ulight-CREBtide, either 50 μM ATP or 2 mM ATP, 60 min at RT
T2 construct: Purified human recombinant kinase full-length wildtype AKT1 was expressed in insect cells; made in house; host or cells: insect cells
Description: AKT1 kinase assay: Inhibitory effects of compounds on wildtype AKT1 were undertaken in a 10-pt dose response kinase activity assay measuring phospho-peptide product formation based on TR-FRET signal as described in the following paragraph.
as §1, with “full-length wildtype” for “full-length”, “AKT1” for “AKT1 E17K”, “AKT1,50” for “AKT1 E17K, 50”, “1:3” for “1.3”
The symbol +++ represents an IC50 value <20 μM; the symbol ++ represents an IC50 value from ≥20 μM to 80 μM.

T2 sequence (P31749 whole entry): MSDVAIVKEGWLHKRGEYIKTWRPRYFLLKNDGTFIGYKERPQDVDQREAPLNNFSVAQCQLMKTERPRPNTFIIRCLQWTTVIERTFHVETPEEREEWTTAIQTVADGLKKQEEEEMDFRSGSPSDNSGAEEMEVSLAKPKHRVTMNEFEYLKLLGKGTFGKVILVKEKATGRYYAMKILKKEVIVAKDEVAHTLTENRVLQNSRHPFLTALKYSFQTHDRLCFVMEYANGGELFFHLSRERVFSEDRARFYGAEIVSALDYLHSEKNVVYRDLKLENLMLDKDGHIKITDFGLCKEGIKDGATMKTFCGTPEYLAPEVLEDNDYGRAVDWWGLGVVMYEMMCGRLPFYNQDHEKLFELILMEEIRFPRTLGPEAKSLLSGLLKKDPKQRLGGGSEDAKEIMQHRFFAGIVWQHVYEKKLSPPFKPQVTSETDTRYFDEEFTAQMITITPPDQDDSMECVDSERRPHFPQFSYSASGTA
T1 sequence (P31749 whole entry E17K): as the sequence (P31749 whole entry) above, with E17K counted along it

SMILES: CC1(C)C[C@H](CN2CC(c3ccc(-n4c(-c5cccnc5N)nc5ccc(-c6ccccc6)nc54)cc3)C2)CC(C)(C)[C@H]1C(=O)O [Compound I-147]
- IC50 [1]: < 500 nM
- IC50 [2]: < 20000 nM

SMILES: CC1(c2ccc(-n3c(-c4cccnc4N)nc4ccc(-c5ccccc5)nc43)cc2)CN(C[C@H]2CC[C@H](C(=O)O)CC2)C1 [Compound I-154]
- IC50 [1]: 500 to 2000 nM
- IC50 [2]: < 20000 nM

SMILES: Cc1cc(C2CN(CC34CCC(C(=O)O)(CC3)CC4)C2)ccc1-n1c(-c2cccnc2N)nc2ccc(-c3ccccc3)nc21 [Compound I-206]
- IC50 [1]: 500 to 2000 nM
- IC50 [2]: < 20000 nM

SMILES: Nc1ncccc1-c1nc2ccc(-c3ccccc3)nc2n1-c1ccc(NC(=O)C2CCC(C(=O)O)C2)nc1 (centres unmarked) [Compound I-8, 3-((5-(2-(2-aminopyridin-3-yl)-5-phenyl-3H-imidazo[4,5-b]pyridin-3-yl)pyridin-2-yl)carbamoyl)cyclopentane-1-carboxylic acid]
- IC50 [1]: 500 to 2000 nM
- IC50 [2]: < 20000 nM

SMILES: Nc1ncccc1-c1nc2ccc(-c3ccccc3)nc2n1-c1ccc(N2CC3(CC(C(=O)O)C3)C2)nc1 [Compound I-107, 2-(5-(2-(2-aminopyridin-3-yl)-5-phenyl-3H-imidazo[4,5-b]pyridin-3-yl)pyridin-2-yl)-2-azaspiro[3.3]heptane-6-carboxylic acid]
- IC50 [1]: ≥ 2000 nM
- IC50 [2]: < 20000 nM

SMILES: Nc1ncccc1-c1nc2ccc(-c3ccccc3)nc2n1-c1ccc(NC(=O)C2CCC(C(=O)O)C2)cc1 (centres unmarked) [Compound I-1, 3-((4-(2-(2-aminopyridin-3-yl)-5-phenyl-3H-imidazo[4,5-b]pyridin-3-yl)phenyl)carbamoyl)cyclopentane-1-carboxylic acid]
- IC50 [1]: < 500 nM
- IC50 [2]: < 20000 nM

SMILES: Nc1ncccc1-c1nc2ccc(-c3ccccc3)nc2n1-c1ccc(NC(=O)C2CC3(CC(C(=O)O)C3)C2)nc1 (centres unmarked) [Compound I-112, 6-((5-(2-(2-aminopyridin-3-yl)-5-phenyl-3H-imidazo[4,5-b]pyridin-3-yl)pyridin-2-yl)carbamoyl)spiro[3.3]heptane-2-carboxylic acid]
- IC50 [1]: < 500 nM
- IC50 [2]: < 20000 nM

SMILES: CC1(C)C[C@@H](CN2CC(c3ccc(-n4c(-c5cccnc5N)nc5ccc(-c6ccccc6)nc54)cc3)C2)CC[C@H]1C(=O)O [Compound I-69, (1R,4S)-4-((3-(4-(2-(2-aminopyridin-3-yl)-5-phenyl-3H-imidazo[4,5-b]pyridin-3-yl)phenyl)azetidin-1-yl)methyl)-2,2-dimethylcyclohexane-1-carboxylic acid]
- IC50 [1]: < 500 nM
- IC50 [2]: < 20000 nM

SMILES: CC(C)[C@@H]([C@H]1CC[C@H](C(=O)O)CC1)N1CC(c2ccc(-n3c(-c4cccnc4N)nc4ccc(-c5ccccc5)nc43)cc2)C1 [Compound I-74, (1S,4r)-4-((S)-1-(3-(4-(2-(2-aminopyridin-3-yl)-5-phenyl-3H-imidazo[4,5-b]pyridin-3-yl)phenyl)azetidin-1-yl)-2-methylpropyl)cyclohexane-1-carboxylic acid]
- IC50 [1]: ≥ 2000 nM
- IC50 [2]: < 20000 nM

SMILES: C[C@@H]1C[C@H](N(C)Cc2ccc(-n3c(-c4cccnc4N)nc4ccc(-c5ccccc5)nc43)c(F)c2)C[C@H](C)[C@H]1C(=O)O [Compound I-160]
- IC50 [1]: 500 to 2000 nM
- IC50 [2]: < 20000 nM

SMILES: Nc1ncccc1-c1nc2ccc(-c3ccccc3)nc2n1-c1c(F)cc(C2CN(C[C@H]3CC[C@H](C(=O)O)CC3)C2)cc1F [Compound I-208]
- IC50 [1]: 500 to 2000 nM
- IC50 [2]: < 20000 nM

SMILES: Cc1nc(-n2c(-c3cccnc3N)nc3ccc(-c4ccccn4)cc32)ccc1NC(=O)[C@H]1CC[C@H](C(=O)O)CC1 [Compound I-133, (1r,4r)-4-((6-(2-(2-aminopyridin-3-yl)-6-(pyridin-2-yl)-1H-benzo[d]imidazol-1-yl)-2-methylpyridin-3-yl)carbamoyl)cyclohexane-1-carboxylic acid]
- IC50 [1]: ≥ 2000 nM
- IC50 [2]: < 20000 nM

SMILES: Nc1ncccc1-c1nc2ccc(-c3ccccc3)nc2n1-c1ccc(NC(=O)[C@H]2CC[C@@H](C(=O)O)CC2)cc1 [Compound I-3, cis-4-[[4-[2-(2-amino-3-pyridyl)-5-phenyl-imidazo[4,5-b]pyridin-3-yl]phenyl]carbamoyl]cyclohexanecarboxylic acid]
- IC50 [1]: < 500 nM
- IC50 [2]: < 20000 nM

SMILES: CC(c1ccc(-n2c(-c3cccnc3N)nc3ccc(-c4ccccc4)nc32)cc1)N(C)[C@H]1CC[C@@H](C(=O)O)CC1 (some centres unmarked) [Compound I-177]
- IC50 [1]: 500 to 2000 nM
- IC50 [2]: < 20000 nM

SMILES: Cc1cc(C2CN(C[C@H]3CC[C@H](C(=O)O)CC3)C2)ccc1-n1c(-c2cccnc2N)nc2ccc(-c3ccccc3F)nc21 [Compound I-209]
- IC50 [1]: 500 to 2000 nM
- IC50 [2]: < 20000 nM

SMILES: Nc1ncccc1-c1nc2ccc(-c3ccccc3F)nc2n1-c1ccc([C@H]2CCN(C[C@H]3CC[C@@H](C(=O)O)CC3)C2)cc1 (single isomer, unassigned) [Compound I-228]
- IC50 [1]: 500 to 2000 nM
- IC50 [2]: < 20000 nM

SMILES: Nc1ncccc1-c1nc2ccc(-c3ccccc3)nc2n1-c1ccc(C2CN(CC3CCC(C(=O)O)CC3)C2)nc1 (centres unmarked) [Compound I-64, 4-((3-(5-(2-(2-aminopyridin-3-yl)-5-phenyl-3H-imidazo[4,5-b]pyridin-3-yl)pyridin-2-yl)azetidin-1-yl)methyl)cyclohexane-1-carboxylic acid]
- IC50 [1]: ≥ 2000 nM
- IC50 [2]: < 20000 nM

SMILES: Cc1nc(NC(=O)[C@H]2CC[C@H](C(=O)O)CC2)ccc1-n1c(-c2cccnc2N)nc2ccc(-c3ccccc3F)nc21 [Compound I-218]
- IC50 [1]: 500 to 2000 nM
- IC50 [2]: < 20000 nM

SMILES: Nc1ncccc1-c1nc2ccc(-c3ccccc3F)nc2n1-c1ccc(C2CN(CC34CCC(C(=O)O)(CC3)CC4)C2)cc1 [Compound I-203]
- IC50 [1]: < 500 nM
- IC50 [2]: < 20000 nM

SMILES: Nc1ncccc1-c1nc2ccc(-c3ccccc3)nc2n1-c1ccc(N2CCC(C(=O)O)C2)nc1 (centres unmarked) [Compound I-25, 1-(5-(2-(2-aminopyridin-3-yl)-5-phenyl-3H-imidazo[4,5-b]pyridin-3-yl)pyridin-2-yl)pyrrolidine-3-carboxylic acid]
- IC50 [1]: 500 to 2000 nM
- IC50 [2]: < 20000 nM

SMILES: Nc1ncccc1-c1nc2ccc(-c3ccccn3)cc2n1-c1ccc(C2CN(C[C@H]3CC[C@H](C(=O)O)CC3)C2)cc1 [Compound I-68, (1r,4r)-4-((3-(4-(2-(2-aminopyridin-3-yl)-6-(pyridin-2-yl)-1H-benzo[d]imidazol-1-yl)phenyl)azetidin-1-yl)methyl)cyclohexane-1-carboxylic acid]
- IC50 [1]: ≥ 2000 nM
- IC50 [2]: < 20000 nM

SMILES: CN(Cc1ccc(-n2c(-c3cccnc3N)nc3ccc(-c4ccccc4)nc32)cc1)C1CC[C@@H](C(=O)O)C1 (some centres unmarked) [Compound I-173]
- IC50 [1]: 500 to 2000 nM
- IC50 [2]: < 20000 nM
